For data set [1], the system named is LNCaP ARE-Luc. Kind of data set: Luciferase assay in LNCaP cell lysates (LNCaP ARE-Luc). Conditions: Homo sapiens, Firefly Luciferase Assay System, read-out: LNCaP ARE-Luc % inhibition IC50 Ranges. The data set is classed as cell-based. As to the method: Lysates were thawed on ice then collected into V-bottom 96-well tissue culture plates. Lysates were centrifuged at 4° C. for 5 minutes at 4000 rpm. To measure luminescence of LNCaP cell lysates the Firefly Luciferase Assay System (Promega) was employed, according to manufacturer's protocol. Relative luminescence units (RLU) in cell lysates were detected for 10 seconds using Promega GoMax-Multi Detection Luminometer (Promega).
Statistical analyses were performed using GraphPad Prism (Version 6.01 for Windows; La Jolla, Calif., USA). Comparisons between treatment and control groups were compared using Two-Way ANOVA with post-hoc Dunnett's and Tukey's tests. Differences were considered statistically significant at P values less than 0.05. Densitometric quantification of relative AR levels was determined by Image.

Data set [2] in a line: Microsomal stability assay, HLM. It counts as in vitro ADME. Conditions: human, pH 7.4, 1 μM test compound, 0.5 mg/mL liver microsomes protein, 37° C., 0-60 min, read-out: HLM +/− NADPH: Clint (μL/min/mg protein). An excerpt: (§1) Microsomal Stability Assay: Microsomal stability assay is a widely used in vitro model to characterize the metabolic conversion by phase I enzymes, such as cytochrome P450 (CYP) enzymes. Since metabolism is known to be highly variable in different species, microsomal stability assay is commonly run in multiple species. Metabolic stability of testing compound can be evaluated using human, rat, mouse, or other animal liver or intestine microsomes to predict intrinsic clearance.
(§2) The assay was carried out in 96-well microtiter plates at 37° C. Reaction mixtures (25 μL) contained a final concentration of 1 μM test compound, 0.5 mg/mL liver microsomes protein, and 1 mM NADPH and/or 1 mM UDPGA (with alamethicin) in 100 mM potassium phosphate, pH 7.4 buffer with 3 mM MgCl2. The incubation was done with N=1, but duplicate incubation at each time point can be prepared if necessary. At each of the time points (for example, 0, 15, 30, and 60 minutes), 150 μL of quench solution (100% acetonitrile with 0.1% formic acid) with internal standard was transferred to each well. Besides the zero minute controls, mixtures containing the same components except the NADPH can also be prepared as the negative control. Verapamil was included as a positive control to verify assay performance. Plates were sealed, vortexed, and centrifuged at 4° C. for 15 minutes at 4000 rpm. The supernatant is transferred to fresh plates for LC/MS/MS analysis.
(§3) Summarized conditions: [Compound]=1 μM, [LM]=0.5 mg/mL, [NADPH]=1 mM and/or [UDPGA]=1 mM, Buffer=100 mM Potassium Phosphate, pH 7.4 with 3 mM MgCl2, Time=0, 15, 30, and 60 min, and Temperature=37° C.
(§4) All samples were analyzed on LC/MS/MS using an AB Sciex API 4000 instrument, coupled to a Shimadzu LC-20AD LC Pump system. Analytical samples were separated using a Waters Atlantis T3 dC18 reverse phase HPLC column (20 mm×2.1 mm) at a flow rate of 0.5 mL/min. The mobile phase consisted of 0.1% formic acid in water (solvent A) and 0.1% formic acid in 100% acetonitrile (solvent B).
(§5) The extent of metabolism is calculated as the disappearance of the test compound, compared to the 0-min time incubation. Initial rates are calculated for the compound concentration and used to determine half-life (t½) values and subsequently, the intrinsic clearance (Clint). Clint=(0.693)(1/t½ (min))(g of liver/kg of body weight)(mL incubation/mg of microsomal protein)(45 mg of microsomal protein/g of liver weight)
For orientation: Microsomes from liver hold many membrane-bound enzymes, among them those of drug oxidation.

A short description of data set [3]: Hepatocyte stability assay, MH. It counts as in vitro ADME. Conditions: mouse, cryopreserved hepatocytes, 1 μM test compound, 0.5 million cells/mL hepatocytes, 37° C., 0-180 min, read-out: MH +/− NADPH: Clint (μL/min/million cells). An excerpt: Hepatocyte Stability Assay: The […] of in vitro intrinsic clearance (Clint) for drug candidates in the early discovery stage is common practice in the pharmaceutical industry. The Clint values of drug candidates can help to confirm whether metabolism is the main clearance pathway when it is compared with the total body clearance in vivo. Hepatocytes are among the routinely used in vitro systems for measuring clearance. Hepatocytes have been reported to retain most of the phase I and phase II metabolic activities, and therefore, it is a useful tool to estimate the intrinsic clearance for potential drug candidates.
Metabolic stability of testing compound were be evaluated using human and mouse hepatocytes and can also be use rat, mouse, or other animal hepatocytes to predict intrinsic clearance. Cryopreserved hepatocytes were removed from the liquid nitrogen tank and thawed in a 37° C. water bath. As soon as the cells pulled away from the vial wall, they were decanted into 48 ml of warm HT medium. Cells were centrifuged for four minutes at 420 rpm (50 g). After removing the supernatant, pellet was re-suspended in warm DMEM medium. Cell density was counted by a hemacytometer.
The assay was carried out in 96-well microtiter plates. Compounds were incubated for 0, 60, 120, and 180 minutes at 37° C. with hepatocytes. Reaction mixtures (50 μL) contained a final concentration of 1 μM test compound, 0.5 million cells/mL hepatocytes in the DMEM medium. At each of the time points (for example, 0, 1, 2, and 3 hours), 200 μL of quench solution (100% acetonitrile with 0.1% formic acid) with internal standard was transferred to each well. Midazolam was included as a positive control to verify assay performance. Plates were sealed and centrifuged at 4° C. for 15 minutes at 4000 rpm. The supernatant is transferred to fresh plates for LC/MS/MS analysis.
Summarized conditions (customizable): [Compound]=[…], Positive control: midazolam and/or naloxone, [Hepatocyte]=0.5 million cells/Ml, time=0, 60, 120, and 180 m t=37° C.
All samples were analyzed on LC/MS/MS using an ABSciex API 4000 instrument, coupled to a Shimadzu LC-20AD LC Pump system. Analytical samples were separated using a Waters Atlantis T3 dC18 reverse phase HPLC column (20 mm×2.1 mm) at a flow rate of 0.5 mL/min. The mobile phase consisted of 0.1% formic acid in water (solvent A) and 0.1% formic acid in 100% acetonitrile (solvent B).
The extent of metabolism was calculated as the disappearance of the test compound, compared to the 0-min control reaction incubations. Initial rates were calculated for the compound concentration and used to determine t½ values and subsequently, the intrinsic clearance, Clint. Clint=(0.693)(1/t½ (min))(mL incubation/million cells)

A short description of data set [4]: Microsomal stability assay, MLM. The data set is classed as in vitro ADME. The following applies: mouse, pH 7.4, 1 μM test compound, 0.5 mg/mL liver microsomes protein, 37° C., 0-60 min, read-out: MLM +/− NADPH: Clint (μL/min/mg protein).
From the text: as §1, §2, §3, §4, §5

The results in this text go back to patent US11485713B2, “Androgen receptor modulators and methods for their use” (ESSA Pharma, Inc., priority 2018, dated 2022).

Where a name gives a salt, the structure may show the parent alone.

In the case of `CC(C)(c1ccc(OCC(=O)CNS(C)(=O)=O)cc1)c1cc(Cl)c(OC[C@H](O)CCl)c(Cl)c1` [A51(S), (S)—N-(3-(4-(2-(3,5-dichloro-4-(3-chloro-2-hydroxypropoxy)phenyl)propan-2-yl)phenoxy)-2-oxopropyl)methanesulfonamide], in data set [1], the IC50 (usually the midpoint of a concentration-inhibition curve) was under 0.1 µM. Also, in data set [2], the microsomal CLint at 1 μM was at least 48 µL/min/mg. In data set [3], the hepatocyte CLint at 1 μM was at least 18 µL/min/1e6 cells.
For `COCC(=O)COc1ccc(C(C)(C)c2cc(Cl)c(OC[C@H](O)CCl)c(Cl)c2)cc1` [A56(S), (S)-1-(4-(2-(3,5-dichloro-4-(3-chloro-2-hydroxypropoxy)phenyl)propan-2-yl)phenoxy)-3-methoxypropan-2-one], in data set [1], the half-maximal inhibitory concentration (IC50) is at least 0.25 µM. For the same molecule, the microsomal CLint at 1 μM in data set [4] and in data set [2] was at least 48 µL/min/mg each time. For the same molecule, the hepatocyte CLint at 1 μM in data set [3] was at least 18 µL/min/1e6 cells.
On to `CC(C)(c1ccc(OCC(=O)CNS(C)(=O)=O)cc1)c1cc(Cl)c(OCCCCl)c(Cl)c1` [Compound A31, N-(3-(4-(2-(3,5-dichloro-4-(3-chloropropoxy)phenyl)propan-2-yl)phenoxy)-2-oxopropyl)methanesulfonamide], for which the IC50 in data set [1] was under 0.1 µM. Besides, the microsomal CLint at 1 μM in data set [2] is at least 48 µL/min/mg. Further, in data set [3], the hepatocyte CLint at 1 μM is at least 18 µL/min/1e6 cells.
On to `CC(C)(c1ccc(OCC(=O)CS(C)(=O)=O)cc1)c1cc(Cl)c(OCC(O)CCl)c(Cl)c1` (stereo not drawn) [Compound A54], for which the microsomal CLint at 1 μM in data set [4] and in data set [2] was at least 48 µL/min/mg each time. Besides, the hepatocyte CLint at 1 μM in data set [3] is at least 18 µL/min/1e6 cells.
In the case of `CC(C)(c1ccc(OCC(=O)CS(C)(=O)=O)cc1)c1cc(Cl)c(OCCCCl)c(Cl)c1` [Compound A55, 1-(4-(2-(3,5-dichloro-4-(3-chloropropoxy)phenyl)propan-2-yl)phenoxy)-3-(methylsulfonyl)propan-2-one], the IC50 in data set [1] was at least 0.25 µM. The microsomal CLint at 1 μM in data set [4] and in data set [2] was at least 48 µL/min/mg in each case. In data set [3], the hepatocyte CLint at 1 μM is at least 18 µL/min/1e6 cells.
Regarding `COCC(=O)COc1ccc(Cc2cc(Cl)c(OCC(O)CCl)c(Cl)c2)cc1` (stereo not drawn) [Compound A57], the microsomal CLint at 1 μM in data set [4] and in data set [2] was at least 48 µL/min/mg throughout. Further, the hepatocyte CLint at 1 μM in data set [3] was at least 18 µL/min/1e6 cells.
As for `COCC(=O)COc1ccc(C(F)(F)c2cc(Cl)c(OCC(O)CCl)c(Cl)c2)cc1` (stereo not drawn) [Compound A58], the microsomal CLint at 1 μM in data set [4] and in data set [2] was at least 48 µL/min/mg in each case. The hepatocyte CLint at 1 μM in data set [3] is at least 18 µL/min/1e6 cells.
Regarding `COCC(=O)COc1ccc(C(C)(C)c2cc(Cl)c(OCCCCl)c(Cl)c2)cc1` [Compound A59], the microsomal CLint at 1 μM in data set [4] and in data set [2] was at least 48 µL/min/mg in each case. The hepatocyte CLint at 1 μM in data set [3] is at least 18 µL/min/1e6 cells.
As to `COCC(=O)COc1ccc(C(C)(C)c2cc(Cl)c(OCC(C)(O)CCl)c(Cl)c2)cc1` (stereo not drawn) [Compound A60], the microsomal CLint at 1 μM in data set [4] and in data set [2] was at least 48 µL/min/mg each time. The hepatocyte CLint at 1 μM in data set [3] is at least 18 µL/min/1e6 cells.
`CC(C)(c1ccc(OCC(=O)CNS(C)(=O)=O)cc1)c1cc(Cl)c(OCCCBr)c(Cl)c1` [Compound A61]: the 50% inhibitory concentration (IC50) in data set [1] fell in the range of 0.1 to 0.25 µM. The microsomal CLint at 1 μM in data set [4] and in data set [2] was at least 48 µL/min/mg each time. In addition, in data set [3], the hepatocyte CLint at 1 μM is at least 18 µL/min/1e6 cells.
Turning to `CN(CC(=O)CNS(C)(=O)=O)c1ccc(C(C)(C)c2cc(Cl)c(OCCCl)c(Cl)c2)cc1` [Compound A81, N-(3-((4-(2-(3,5-dichloro-4-(2-chloroethoxy)phenyl)propan-2-yl)phenyl) (methyl)amino)-2-oxopropyl)methanesulfonamide hydrochloride], the IC50 in data set [1] is at least 0.25 µM. Also, the microsomal CLint at 1 μM in data set [4] and in data set [2] was 12 to 48 µL/min/mg in each case.
